Data: patent US20240277716A1, “Suppressive T Cell Populations and Methods of Cancer Immunotherapy” (La Jolla Institute for Immunology, priority 2021, published 2024)

Assays:
[1] = system: patients with resectable head and neck squamous cell carcinoma (HNSCC); type: in vivo, human
From the text: PI3Kδ inhibition causes irAEs. To evaluate the potential for PI3Kδ inhibitors as immunotherapeutic agents in human solid cancers, the inventors administered the PI3Kδi AMG319 to treatment-naive patients with resectable head and neck squamous cell carcinoma (HNSCC) in a neoadjuvant, double-blind, placebo-controlled randomized phase II trial. The inventors measured target inhibition (pAKT levels in B cells and drug levels to verify drug administration. Thirty-three patients were randomized in a 2:1 ratio (AMG319:Placebo) to the trial and 30 patients received at least one dose of AMG319 or placebo. Fifteen patients received 400 mg daily of AMG319 (range of 7-24 days per patient). Unexpectedly, at the 400 mg dose, 9/15 patients experienced irAEs that lead to withdrawal of treatment. After a formal safety review, 6 additional patients were recruited and treated at a reduced dose of 300 mg per day. Again, 3/6 patients had irAEs that led to discontinuation of treatment. One patient experienced grade 4 colitis after completion of 24 daily doses of AMG319 and eventually required colectomy (FIG. 4A). The most prevalent irAEs were skin rashes (29%; 25% observed in the treatment group and 4% in placebo group), diarrhea (29%; 28% in observed treatment group and 1% in placebo group) and transaminitis (14% all in the treatment group), consistent with a treatment-mediated loss of TREG cells or TREG cell functionality in multiple tissues causing immunopathology.
Double blind, randomized clinical trial and sample collection. In order to explore the immunomodulatory effects of PI3Kδ inhibition in humans, the inventors conducted a multicenter, placebo-controlled phase II neoadjuvant trial with the PI3Kδi AMG319 in resectable HNSCC, www.clinicaltrialsregister.eu/ctr-search/trial/2014-004388-20/results). All patients have provided written informed consent for participation in the clinical trial. The inventors studied Human Papilloma Virus (HPV)-negative HNSCC, as this cancer type is more prevalent, and because patients with this cancer type have poorer outcomes when compared to HPV-positive HNSCC, likely due to overall lower tumor-infiltrating lymphocyte (TIL) infiltration^31-33. The clinical trial was sponsored by Cancer Research UK Center for Drug Development (CRUKD/15/004) and approved by the Southampton and South West Hampshire Research Ethics Board; the trial EudraCT number is 2014-004388-20. Detailed information about the trial design, randomization procedure, protocol amendments, recruitment data, patient characteristics and adverse events are deposited at www.clinicaltrialsregister.eu/ctr-search/trial/2014-004388-20/results #morelnformationSection and found in the CONSORT checklist. Patients were recruited after initial diagnosis and before definitive surgical treatment; drug treatment or placebo was given for up to 24 or 28 days respectively, prior to resection of tumor. […] The inventors reasoned that high-grade irAEs were unlikely to occur during the shorter treatment duration in the neoadjuvant setting, and therefore selected 400 mg/day as the starting dose. The intended time from initiating treatment with AMG319 or placebo to surgical resection of tumor was up to 4 weeks, with weekly blood draws. The full evaluation of radiological measurements has previously been reported at https://www.clinicaltrialsregister.eu/ctr-search/trial/2014-004388-20/results to the EU Clinical Trials Register in compliance with regulatory requirements. Primary endpoints were safety and assessment of CD8^+ immune infiltrates, secondary endpoints tumor responses and AMG319 pharmacokinetic evaluation (https://www.clinicaltrialsregister.eu/ctr-search/trial/2014-004388-20/results#endPointsSection). The sample size was calculated as follows: in a pilot cohort, the CD8 count in the biopsy taken at diagnosis, and in the resected tissue sample was quantified. […]

circulating TREG cells = experiment: Phase II trial: circulating TREG cells; design: species or system human; conditions: in vivo
From the text: Double blind, randomized clinical trial and sample collection. In order to explore the immunomodulatory effects of PI3Kδ inhibition in humans, the inventors conducted a multicenter, placebo-controlled phase II neoadjuvant trial with the PI3Kδi AMG319 in resectable HNSCC, www.clinicaltrialsregister.eu/ctr-search/trial/2014-004388-20/results). All patients have provided written informed consent for participation in the clinical trial. The inventors studied Human Papilloma Virus (HPV)-negative HNSCC, as this cancer type is more prevalent, and because patients with this cancer type have poorer outcomes when compared to HPV-positive HNSCC, likely due to overall lower tumor-infiltrating lymphocyte (TIL) infiltration^31-33. The clinical trial was sponsored by Cancer Research UK Center for Drug Development (CRUKD/15/004) and approved by the Southampton and South West Hampshire Research Ethics Board; the trial EudraCT number is 2014-004388-20. […] The sample size was calculated as follows: in a pilot cohort, the CD8 count in the biopsy taken at diagnosis, and in the resected tissue sample was quantified. […]

[2] = system: tumor-infiltrating TREG cells and CD8+ T cells in HNSCC tumor tissue; experiment: Phase II trial: tumor RNA-seq, sorted CD8+ T cell RNA-seq and FOXP3 immunohistochemistry, pre- vs post-treatment; type: in vivo, human
From the text: Double blind, randomized clinical trial and sample collection. In order to explore the immunomodulatory effects of PI3Kδ inhibition in humans, the inventors conducted a multicenter, placebo-controlled phase II neoadjuvant trial with the PI3Kδi AMG319 in resectable HNSCC, www.clinicaltrialsregister.eu/ctr-search/trial/2014-004388-20/results). All patients have provided written informed consent for participation in the clinical trial. The inventors studied Human Papilloma Virus (HPV)-negative HNSCC, as this cancer type is more prevalent, and because patients with this cancer type have poorer outcomes when compared to HPV-positive HNSCC, likely due to overall lower tumor-infiltrating lymphocyte (TIL) infiltration^31-33. The clinical trial was sponsored by Cancer Research UK Center for Drug Development (CRUKD/15/004) and approved by the Southampton and South West Hampshire Research Ethics Board; the trial EudraCT number is 2014-004388-20. Detailed information about the trial design, randomization procedure, protocol amendments, recruitment data, patient characteristics and adverse events are deposited at www.clinicaltrialsregister.eu/ctr-search/trial/2014-004388-20/results #morelnformationSection and found in the CONSORT checklist. Patients were recruited after initial diagnosis and before definitive surgical treatment; drug treatment or placebo was given for up to 24 or 28 days respectively, prior to resection of tumor. […] The inventors reasoned that high-grade irAEs were unlikely to occur during the shorter treatment duration in the neoadjuvant setting, and therefore selected 400 mg/day as the starting dose. The intended time from initiating treatment with AMG319 or placebo to surgical resection of tumor was up to 4 weeks, with weekly blood draws. The full evaluation of radiological measurements has previously been reported at https://www.clinicaltrialsregister.eu/ctr-search/trial/2014-004388-20/results to the EU Clinical Trials Register in compliance with regulatory requirements. Primary endpoints were safety and assessment of CD8^+ immune infiltrates, secondary endpoints tumor responses and AMG319 pharmacokinetic evaluation (https://www.clinicaltrialsregister.eu/ctr-search/trial/2014-004388-20/results#endPointsSection). The sample size was calculated as follows: in a pilot cohort, the CD8 count in the biopsy taken at diagnosis, and in the resected tissue sample was quantified. The mean value at diagnosis was 25 cells/high power filed (hpf), and this remained almost the same in the resected sample (26 cells/hpf). […] To detect a standardized difference of 0.5 with 80% power and one-sided test of statistical significance of 20%, 36 patients were randomized to AMG319 and 18 to placebo (54 in total). Randomization was at the level of the individual patient, using block randomization with randomly varying block sizes. During the course of the clinical trial the randomization list was held by the unblinded Trial Statistician and within the IWRS. Patients and care providers were blinded to the treatment allocation, and all immunological evaluations were completed by a pathologist and researchers who were blinded to the patient allocation to treatment arms. […] Patients were eligible if they were >18 years, with histologically proven HNSCC for whom surgery was the primary treatment option, with laboratory results within specified ranges. […]

[3] = system: heavily-pretreated patients with either CLL or non-Hodgkin lymphoma; conditions: cited from earlier work

C[C@H](Nc1ncnc2[nH]cnc12)c1cc2ccc(F)cc2nc1-c1ccccn1 [AMG319]
difference in measured tumor volumes between the study arms ([1]; 23 evaluable patients, AMG319 vs placebo): did not observe any significant differences
patients with partial responses (PR) ([1]; AMG319-treated, all also grade 3/4 irAEs): Two
patients with complete pathological response ([1]; AMG319-treated, also grade 3/4 irAEs): one
diarrhea observed in the treatment group ([1]; human, in vivo): 28%
median time to onset of irAEs ([1]; human, in vivo): 9 days
skin rashes observed in the treatment group ([1]; human, in vivo): 25%
transaminitis ([1]; human, in vivo): 14%
patients with grade 4 colitis, eventually required colectomy ([1]; in vivo): One
activated circulating TREG cells (circulating TREG cells): significant increase
expression of IFNG, GZMB and PRF1 in sorted tumor-infiltrating CD8+ T cells ([2]; post-treatment samples, bulk RNA-seq): higher expression
differentially expressed genes, sorted CD8+ T cells ([2]; post-treatment vs remaining samples): 455 genes
FOXP3 transcript levels in the tumor samples ([2]; pre- vs post-treatment): significant reduction
differentially-expressed genes, whole tumor RNA-seq ([2]; pre- vs post-treatment tumor samples): 93 DEGs
intratumoral TREG cells (FOXP3+ cells, immunohistochemistry) ([2]; short interval between stopping treatment and assessment): significantly reduced
nodal regression ([3]; daily dosing with 400 mg): > 50%
target inhibition (BCR-induced pAKT in ex vivo IgD-stimulated CLL samples) ([3]; daily dosing with 400 mg): near-complete target inhibition
maximally-tolerated dose ([3]; doses of up to 400 mg explored): without reaching a maximally-tolerated dose
mean half-life in plasma ([3]; human plasma): 3.8 to 6.6 h
occurrence of irAE at grade 3 or above (CTC) ([3]; in vivo): after days 40 and 60
